Test results taken from patent US9862678B2, “3,4-diaminobenzenesulfonamide derivatives for inhibiting cell death” (VIB VZW, priority 2014, dated 2018).

Legend:
[1] = Microsomal stability, human microsomes
Method: (§1) In a next step a subset of compounds was subjected to ADME analysis. Thereto the metabolism by murine and human microsomes of representative compounds of the disclosure was measured. The compound ferrostatin-1 (Fer-1, described in S. J. Dixon et al. (2012) Cell 149, 1060-1072), originally described to inhibit ferroptosis, was used a control. In addition, the plasma stability in murine and human plasma was measured. The percentage of remaining compounds was measured by LC-MS.

[2] = Microsomal stability, murine microsomes
Method: as §1

[3] = system: IMR-32 neuroblastoma cell line; assay: Inhibition of erastin-induced ferroptosis in IMR-32 cells (Sytox Green cell death readout); type: cell-based; details: Homo sapiens; inhibiting ferroptosis in the IMR-32 neuroblastoma cell line stimulated with 10 μM erastin; compounds 1 nM to 1 μM, triplicate
Method: In the present disclosure, the potency of a compound inhibiting (or reducing) ferroptosis and/or oxytosis are determined in in vitro or in vivo assays. Typically in vitro assays are used to measure the potency of a candidate compound. Examples of suitable in vitro assays are cellular assays. One non-limiting example of an assay involves the use of the IMR-32 neuroblastoma cell line. The latter is stimulated to enter into ferroptosis upon stimulation with 10 μM erastin, a documented ferroptosis inducer (see, for example, Dixon et al. (2012) Cell 149, 1060-1072, and ferroptosis inhibitors are evaluated for the prevention of erastin-induced ferroptosis. Yet another assay is based the glutamate-induced cell death in the hippocampal cell line HT22 and ferroptosis/oxytosis inhibitors are evaluated for the prevention of cell death (see N. Henke et al. (2013) Cell Death and Disease 4, e470). Still another assay is based on the sorafinib-induced cell death (described to be iron dependent cell death) in hepatocellular carcinoma cells and ferroptosis inhibitors are evaluated for the prevention of cell death (see C. Louandre et al. (2013) Int. J. Cancer 133, 1732). The calculated potency of a compound inhibiting ferroptosis and/or oxytosis is typically depicted as an IC50 value. Examples of suitable in vivo assays are typically pre-clinical disease models of, for example, mice for the diseases benefiting the application of ferroptosis and/or oxytosis inhibitors, as described herein. One non-limiting example of an in vivo assay is based on inducing liver damage in mice by administering the herbicide diquat dibromide monohydrate and ferroptosis inhibitors are evaluated based on reduced levels of liver transaminases in serum (see Q. Ran et al. (2004) J. Biol. Chem. 279, 53, 55137).
The IC50 values for the individual compounds of the disclosure were determined in the neuroblastoma, IMR-32 cell line. In brief, IMR-32 cells were subjected to 10 μM erastin, the latter compound is known to induce ferroptosis. A concentration gradient (ranging from 1 nM to 1 μM) of the compounds was applied to the cells. These experiments were performed in a 96-well format (in triplicate), and cell death was analyzed in a fluorescent plate reader by use of a fluorescent cell death dye (1.5 μM Sytox Green). The IC50 values depicted in Table 1 are the concentration values for the individual compounds which are able to overcome ferroptosis.

[4] = Kinetic solubility (turbidity); type: physicochemical; details: kinetic solubility by turbidity, test range 3.125 μM to 200 μM, 10 mM PBS pH 7.4
Method: (§2) Unless otherwise stated, laboratory reagent grade solvents were used. Reagents were obtained from Sigma-Aldrich, Acros Organics or Fluorochem and were used without further purification. Characterization of all compounds was done with ^1H and ^13C NMR and mass spectrometry. ^1H and ^13C NMR spectra were recorded on a 400 MHz Bruker Avance III Nanobay spectrometer with Ultrashield and analyzed by use of MestReNova analytical chemistry software. Chemical shifts are in ppm, and coupling constants are in hertz (Hz). ES mass spectra were obtained from an Esquire 3000 plus ion trap mass spectrometer from Bruker Daltonics. Purities were determined with two diverse HPLC systems based either on mass determination or on UV detection. A Waters acquity UPLC system coupled to a Waters TQD ESI mass spectrometer or a Waters SQD ESI mass spectrometer was used both in combination with a Waters TUV detector. Water (A) and CH3CN (B) were used as eluents. LC-MS spectra were recorded on an Agilent 1100 series HPLC system using a Alltech Prevail C18 column (2.1 mm×50 mm, 3 μm) coupled with an Esquire 3000 plus as MS detector, and a “method A” 5-100% B, 20 min gradient was used with a flow rate of 0.2 mL/min. Formic acid, 0.1%, was added to solvents A and B. Waters Acquity UPLC BEH C18 1.7 μm, 2.1 mm×50 mm column was used. Solvent A consisted of water with 0.1% formic acid. Solvent B consisted of acetonitrile with 0.1% formic acid. Method I involved the following: 0.15 min 95% A, 5% B, then in 1.85 min from 95% A, 5% B to 95% B, 5% A, then 0.25 min (0.350 mL/min), 95% B, 5% A. The wavelength for UV detection was 254 nm. Method II involved the following: flow 0.4 mL/min, 0.25 min 95% A, 5% B, then in 4.75 min to 95% B, 5% A, then 0.25 min 95% B, 5% A, followed by 0.75 min 95% A, 5% B. The wavelength for UV detection was 214 nm. Where necessary, flash purification was performed on a Biotage ISOLERA One flash system equipped with an internal variable dual wavelength diode array detector (200-400 nm). For normal phase purifications SNAP cartridges (10-340 g, flow rate of 10-100 mL/min) were used, and reversed phase purifications were done making use of KP-C18 containing cartridges. Dry sample loading was done by self-packing samplet cartridges using silica and Celite 545, respectively, for normal and reversed phase purifications. Gradients used varied for each purification. Mouse and rat plasma came from Innovative Research. The turbidity in the kinetic solubility experiments was measured using the UV/vis spectrophotometer Synergy MX, Biotek with Gen5.

[5] = Plasma stability, human plasma; type: in vitro ADME; details: for recovery at 6 h: human
Method: Thereto the metabolism by murine and human microsomes of representative compounds of the disclosure was measured. […] In addition, the plasma stability in murine and human plasma was measured. The percentage of remaining compounds was measured by LC-MS.

[6] = Plasma stability, murine plasma; type: in vitro ADME, mouse; details: for recovery at 6 h: mouse
Method: as §2

[7] = aqueous buffer, kinetic from dmso stock
[8] = human microsomes (CYP450 and other NADPH-dependent enzymes)
[9] = mouse microsomes (CYP450 and other NADPH-dependent enzymes)

Row | Microsomal stability Half-life (t1/2) (min) Human ([1]; human, microsomes) | Microsomal stability Half-life (t1/2) (min) Mouse ([2]; mouse, microsomes) | solubility [4, 7] | recovery at 6 h [5] | recovery at 6 h [6] | Microsomal stability Half-life (t1/2) (min) Human [1, 8] | Microsomal stability Half-life (t1/2) (min) Mouse [2, 9] | solubility [4] | Plasma stability % recovery after 6 h Human ([5]; human plasma, 6 h, percentage of remaining parent compound, LC-MS) | Plasma stability % recovery after 6 h Mouse ([6]; mouse plasma, 6 h, percentage of remaining parent compound, LC-MS) | SMILES | IC50 [3]
1 | 37 ± 3 min | 31 ± 5 min | 12.5 to 25 µM | 81.9% | 86.2% | – | – | – | – | – | CCNS(=O)(=O)c1ccc(NC2CCCCC2)c(N)c1 [Compound 22, 3-amino-4-(cyclohexylamino)-N-ethylbenzenesulfonamide] | 67 nM
2 | 88 ± 16 min | 187 ± 41 min | 12.5 to 25 µM | 100% | 98.6% | – | – | – | – | – | CCNS(=O)(=O)c1ccc(NC2CCCCC2)c(NCc2ccccc2)c1 [Compound 37, 3-(benzylamino)-4-(cyclohexylamino)-N-ethylbenzenesulfonamide] | 4 nM
3 | – | – | 100 to 200 µM | – | – | – | – | – | – | – | CCNS(=O)(=O)c1ccc(NC2CCCCC2)c(NCc2cncnc2)c1 [Compound 39, 4-(cyclohexylamino)-N-ethyl-3-((pyrimidin-5-ylmethyl)amino)benzenesulfonamide] | 187 nM
4 | 36 ± 11 min | 31 ± 6 min | 12.5 to 25 µM | 100% | 99.4% | – | – | – | – | – | CCNS(=O)(=O)c1ccc(NC2C3CC4CC(C3)CC2C4)c(NCc2ccccc2)c1 (stereo not shown) [Compound 44, 4-(adamantan-2-ylamino)-3-(benzylamino)-N-ethylbenzenesulfonamide] | 3.5 nM
5 | – | – | 12.5 to 25 µM | 100% | 100% | 64 ± 10 min | 26 ± 5 min | – | – | – | CCNS(=O)(=O)c1ccc(NC2C3CC4CC(C3)CC2C4)c(NCc2ccncc2)c1 (stereo not shown) [Compound 45, 4-(adamantan-2-ylamino)-N-ethyl-3-((pyridin-4-ylmethyl)amino)benzenesulfonamide] | 3.9 nM
6 | – | – | 25 to 50 µM | – | – | – | – | – | – | – | CN1CCN(S(=O)(=O)c2ccc(NC3CCCCC3)c(NCc3ccccc3)c2)CC1 [Compound 56, N2-benzyl-N1-cyclohexyl-4-((4-methylpiperazin-1-yl)sulfonyl)benzene-1,2-diamine] | 33 nM
7 | – | – | 25 to 50 µM | – | – | – | – | – | – | – | O=S(=O)(c1ccc(NC2CCCCC2)c(NCc2ccccc2)c1)N1CCOCC1 [Compound 57, N2-benzyl-N1-cyclohexyl-4-(morpholinosulfonyl)benzene-1,2-diamine] | 30 nM
8 | – | – | 100 to 200 µM | – | – | – | – | – | – | – | O=S(=O)(NCCO)c1ccc(NC2CCCCC2)c(NCc2ccccc2)c1 [Compound 58, 3-(benzylamino)-4-(cyclohexylamino)-N-(2-hydroxyethyl)benzenesulfonamide] | 14 nM
9 | – | – | – | – | – | 6.9 ± 0.2 min | 1.9 ± 0.6 min | >200 µM | 100% | 0% | CCOC(=O)c1ccc(NC2CCCCC2)c(N)c1 [Fer-1, ferrostatin-1, reference compound] | –
